Reference: paper PMC10254233, “Synthesis and In Vitro Biological Evaluation of p-Carborane-Based Di-tert-butylphenol Analogs” (Molecules, 2023)

How the values were obtained:
[1] = test system: HCT116 colorectal carcinoma; test: Cell viability, MTT assay, HCT116; assay type: cell-based, human; conditions: 72 h, mean ± SD
Method: Five human cell lines (A375 melanoma, A549 lung adenocarcinoma, HCT116 and HT29 colorectal carcinoma, MDA-MB-231 triple-negative breast adenocarcinoma) were used to study the antitumor effects of the di-tert-butylphenols and their respective carborane analogs. All selected cell lines were derived from inflammation-associated tumors.
After the incubation period, the supernatant was discarded from the wells, and the cells were washed two times with 200 µL of PBS. Next, MTT solution at a final concentration of 0.5 mg/mL was added and incubated at 37 °C until purple formazan crystals were formed (30 min to one hour). After incubation, the dye was discarded. In order to dissolve the formed formazan crystals DMSO was added, and the absorbance was measured at λmax = 540 nm, with the reference/background wavelength of 670 nm. All results are expressed as a percentage of the control value which was arbitrary set to 100%. After 72 h treatment, cells were washed with 200 µL of PBS and fixed with 4% paraformaldehyde (PFA) for 15 min at room temperature (RT). Next, cells were stained with 1% CV solution. After 20 min, cells were washed in tap water and dried on air. Dye was dissolved in 33% acetic acid and the absorbance was measured at λmax = 540 nm, with the reference/background wavelength of 670 nm. Results were expressed as a percentage of the control value which was arbitrary set to 100%.
1. General methods, materials, and procedures
1.1.1. Reagents and cells
Reagents and cells were obtained from following manufacturers: Capricorn Scientific GmbH (Hessen, Germany) – Culture medium RPMI-1640, Dulbecco's Modified Eagle Medium (DMEM), and fetal bovine serum (FBS). Serva (Heidelberg, Germany) – Paraformaldehyde (PFA). Sigma (St. Louis, MO, USA) – Ethylenediaminetetraacetic acid (EDTA), Dimethyl sulfoxide (DMSO), chloroquine, CV, Triton X-100, RNase, PI, PBS, 3-MA, CFSE, and fluorescent mounting medium. AppliChem (MO, USA) –MTT. Thermo Fisher Scientific (Waltham, MA, USA) – DHR. R&D Systems (Minneapolis, MN, USA) – ApoStat. BD (Pharmingen, San Diego, SAD) – Annexin V-FITC (AnnV). Biological Industries (Cromwell, CT, USA) – Penicillin Streptomycin solution. American Type Culture Collection (ATCC, Manassas, Virginia, USA) – Human lung carcinoma (A549), human breast adenocarcinoma (MDA-MB-231), human colorectal ade-nocarcinoma (HT-29), human colorectal carcinoma (HCT116) and human melanoma (A375).
Cell lines (A375, HCT116, HT-29 and MDA-MB-231) were cultivated in HEPES-buffered RPMI-1640 medium while A549 cell line was cultivated in Dulbecco's Modified Eagle Medium (DMEM) which were previously supplemented with 10% heat-inactivated FBS, penicillin (100 units/mL), and streptomycin (100 μg/mL). All cells were kept at 37 °C in a humidified atmosphere with 5% CO2. For viability determi-nation cells were seeded at following densities in 96-well plates: 4 x 10^3 cells/well (A375, HT-29 and MDA-MB-231), 5 x 10^3 cells/well (HCT116), and 3 x 10^3 cells/well (A549). […]
Afterwards, cells were washed with phosphate-buffered saline (PBS) and stained with AnnV (15 μg/mL) and PI (15 μg/mL). […]
PBS and analyzed using flow cytometry. HCT116 cells were stained with 1 µg/mL of AO solution for 15 min at 37 °C to detect the presence of autophagic cell death. Afterwards cells were washed with PBS, resuspended and analyzed by flow cytometry (CyFlow® Space Partec using the PartecFloMax® software

[2] = Lipophilicity logD7.4 by HPLC; conditions: pH 7.4, HPLC method
[3] = NMR spectroscopic stability study in aqueous DMSO-d6; assay type: physicochemical; conditions: room temperature, in air, four weeks, 1H and 11B{1H} NMR
Excerpt: Solubility and chemical stability in organic solvents, such as aqueous dimethyl sulfoxide (DMSO), are crucial for biological investigations. Therefore, the stability of the p-carborane-containing compounds R-830-Cb, S-2474-Cb, KME-4-Cb, and E-5110-Cb in aqueous DMSO-d6 at room temperature in air was studied by ^1H- and ^11B{^1H}-NMR spectroscopy over four weeks and confirmed that all compounds are stable (see Supplementary Materials, Figure S24).

human recombinant COX-2 = target: T1, human recombinant COX-2 (Homo sapiens, UniProt P35354); test: COX Fluorescent Inhibitor Screening Assay, COX-2; assay type: biochemical; conditions: in duplicate
T1 construct: purchased Cayman Chemical Company
T1 sequence (P35354 18-604): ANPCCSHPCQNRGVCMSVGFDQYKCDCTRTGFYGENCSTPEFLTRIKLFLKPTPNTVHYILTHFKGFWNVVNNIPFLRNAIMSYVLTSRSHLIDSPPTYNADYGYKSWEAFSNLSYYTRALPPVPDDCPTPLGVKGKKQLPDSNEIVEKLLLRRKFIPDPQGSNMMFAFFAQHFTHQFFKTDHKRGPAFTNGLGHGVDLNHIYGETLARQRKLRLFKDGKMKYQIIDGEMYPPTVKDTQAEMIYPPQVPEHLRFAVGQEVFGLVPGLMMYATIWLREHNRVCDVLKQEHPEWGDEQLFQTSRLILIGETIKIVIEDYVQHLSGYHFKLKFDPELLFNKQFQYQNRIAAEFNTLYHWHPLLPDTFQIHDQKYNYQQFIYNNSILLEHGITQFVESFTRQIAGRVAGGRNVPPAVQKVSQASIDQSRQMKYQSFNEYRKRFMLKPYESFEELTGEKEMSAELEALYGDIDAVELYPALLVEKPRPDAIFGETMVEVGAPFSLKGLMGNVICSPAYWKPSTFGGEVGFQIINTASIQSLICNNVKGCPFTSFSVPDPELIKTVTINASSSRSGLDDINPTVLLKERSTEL
Method: COX inhibition activity against ovine COX-1 and human COX-2 was determined using the fluorescence-based COX assay COX Fluorescent Inhibitor Screening Assay Kit (Cayman Chemical Company, Ann Arbor, MI, USA) according to the manufacturer’s instructions as previously reported by us. All compounds were screened at a concentration of 100 µM in duplicate.

Substance | IC50 [1] | logD7.4, HPLC [2] | stability in aqueous DMSO-d6 [3] | % Inhibition at 100 µM COX-2 (human recombinant COX-2)
1-Hydroxy-12-(thiophen-2′-carbonyl)-1,12-dicarba-closo-dodecaborane(12) [Compound R-830-Cb] | 40.9 ± 3.1 µM | 2.37 | stable | 6%
(3E)-1-Hydroxy-12-(methylene-[2′-ethylisothiazolidine-1′,1′-dioxide])-1,12-dicarba-closo-dodecaborane(12) [Compound S-2474-Cb] | 108 ± 11.5 µM | 1.88 | stable | n.i. (n.i. = no inhibition (%inhibition below 5%))
(3E)-1-Hydroxy-12-(methylene-[1′-methoxypyrrolidine-2′-one])-1,12-dicarba-closo-dodecaborane(12) [Compound E-5110-Cb] | 144 ± 10.5 µM | 1.50 | stable | n.i. (n.i. = no inhibition (%inhibition below 5%))
(3E)-1-Hydroxy-12-(methylene-[dihydrofurane-2′(3H)-one])-1,12-dicarba-closo-dodecaborane(12) [KME-4-Cb] | 88.5 ± 4.3 µM | 1.87 | stable | n.i. (n.i. = no inhibition (%inhibition below 5%))
